Assay results: patent publication US7943624B2, “Pyridinylpyrazolopyrimidinone derivatives as PDE 7 inhibitors” (Asubio Pharma Co. Ltd., priority 2003, dated 2011)
Several values for one entry are separate records, joined by “and”; a condition that tells them apart may be missing. Equal entries are not always repeated.

How the values were obtained:
[1] = molecular target: T1, PDE 7 (phosphodiesterase VII) (Homo sapiens, UniProt Q13946); assay: PDE 7 inhibiting effect (Biological Test 1; 3H-cAMP hydrolysis by PDE 7 fraction from MOLT-4 cells); type: biochemical; conditions: PDE 7 active fraction from MOLT-4 cells; 0.064 μM cAMP, 10 μM rolipram, 2 hours at 25° C.
T1 construct: filtrated with 0.2 μm filter to obtain the soluble fraction; endogenous in cells; host or cells: MOLT-4 (ATCC CRL-1582); soluble fraction, HiTrap Q eluate at about 350 mM NaCl
T1 sequence (Q13946 whole entry): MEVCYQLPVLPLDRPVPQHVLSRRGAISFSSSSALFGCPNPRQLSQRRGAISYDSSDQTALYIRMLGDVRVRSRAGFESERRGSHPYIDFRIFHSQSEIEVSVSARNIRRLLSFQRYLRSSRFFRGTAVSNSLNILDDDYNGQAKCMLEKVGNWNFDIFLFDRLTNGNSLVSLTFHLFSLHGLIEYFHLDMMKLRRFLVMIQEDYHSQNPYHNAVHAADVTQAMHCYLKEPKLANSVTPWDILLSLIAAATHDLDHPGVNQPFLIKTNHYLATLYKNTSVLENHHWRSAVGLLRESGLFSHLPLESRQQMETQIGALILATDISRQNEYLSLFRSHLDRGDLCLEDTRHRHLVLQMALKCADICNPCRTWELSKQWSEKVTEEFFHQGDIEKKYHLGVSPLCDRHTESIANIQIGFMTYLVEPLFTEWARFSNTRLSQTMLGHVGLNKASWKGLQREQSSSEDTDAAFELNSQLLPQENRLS
Protocol: The PDE 7 (phosphodiesterase VII) inhibiting effect of the compounds of the present invention was performed by the following method, which was modified assay method described in Biochemical. Pharmacol. 48(6), 1219-1223 (1994).
(1) The active fraction of PDE 7 (phosphodiesterase VII) was obtained. That is, MOLT-4 (obtainable from ATCC as ATCC No. CRL-1582), which was cell line of human acute lymphoblastic lymphoma T cells, was incubated in RPMI1640 culture medium containing 10% fetal bovine serum to obtain 5×10^8 MOLT-4 cells. The cells were collected by centrifugation and suspended with 10 mL of buffer solution A 125 mM of tris-HCl, 5 mM of 2-mercaptoethnol, 2 mM of benzamidine, 2 mM of EDTA, 0.1 μM of 4-(2-aminoethyl)benzensulfonyl hydrochloride; pH 7.5], then homogenized by Polytron® homogenizer. The homogenate were centrifuged under 25,000×G for 10 minutes at 4° C. The supernatant was separated and thus obtained supernatant was further centrifuged under 100,000×G for 60 minutes at 4° C., and then filtrated with 0.2 μm filter to obtain the soluble fraction.
(2) The obtained soluble fraction was filled in equilibrium HiTrap Q column (5 mL×2) with buffer solution A, and phosphodiesterase fractions were eluted by 300 mL of buffer solution A with linear gradient from 0 to 0.8 M NaCl concentration. 5 ml each of 60 eluents were collected, and each eluents were examined for cyclic AMP metabolic activities of phosphodiesterase. The fraction eluting with about 350 mM NaCl concentration parts, where metabolic activities were not inactivated by 10 μM of rolipram (selective inhibitor for phosphodiesterase IV) and 10 μM of milrinone (selective inhibitor for phosphodiesterase III), were collected as storage solution for using to test PDE 7 inhibiting effect.
(3) The tested compound having desired concentration was reacted in the solution of 20 mM tris-HCl (pH 7.5), 1 mM of MgCl2, 100 μM of EDTA, 330 μg/mL of bovine serum albumin, 4 μg/mL of 5′-nucleotidase, 0.1 μCi of ^3H-cAMP (0.064 μM of cAMP), 10 μM of rolipram in storage solution of PDE 7 for 2 hours at 25° C. After the reaction, suspension of Sephadex®-QAE in 10 mM of HEPES-Na (pH 7.0) was added to the reaction mixture, and the mixture was left at rest for 5 minutes. Further, Sephadex®-QAE was added to the obtained supernatant and the mixture was leaved at rest for 5 minutes, then, the radioactivity of the solution was measured.
(4) IC50 was calculated as 50% inhibiting concentration of the metabolic activities of phosphodiesterase VII of the tested compound.

[2] = molecular target: PDE 4 (phosphodiesterase IV); assay: PDE 4 inhibiting effect (Biological Test 2; 3H-cAMP hydrolysis by PDE 4 fraction from Balb/c mouse liver); type: biochemical, mice; conditions: PDE 4 active fraction from Balb/c mouse liver; 0.064 μM cAMP, 2 hours at 25° C.
Protocol: The PDE 4 (phosphodiesterase IV) inhibiting effect of the compounds of the present invention was performed by the following method, which was modified assay method described in Biochemical. Pharmacol. 48(6), 1219-1223 (1994).
(1) The active fraction of PDE 4 (phosphodiesterase IV) was obtained. That is, the livers obtained from three Balb/c mice (male, 12 weeks: obtainable from CLEA Japan, Inc.) were suspended with 30 mL of buffer solution B [20 mM of bis-tris, 5 mM of 2-mercaptoethnol, 2 mM of benzamidine, 2 mM of EDTA, 0.1 mM of 4-(2-aminoethyl)benzensulfonyl hydrochloride, 50 mM of sodium acetate; pH 6.5], then homogenized by Polytron® homogenizer. The homogenate were centrifuged under 25,000×G for 10 minutes at 4° C. The supernatant was separated and thus obtained supernatant was further centrifuged under 100,000×G for 60 minutes at 4° C., and then filtrated with 0.2pm filter to obtain the soluble fraction. […]
(3) The tested compound having desired concentration was reacted in the solution of 20 mM tris-HCl (pH 7.5), […], 100 μM of EDTA, 330 μg/mL of bovine serum albumin, 4 μg/mL of 5′-nucleotidase, 0.1 μCi of ^3H-cAMP (0.064 μM of cAMP), and storage solution of PDE 4 for 2 hours at 25° C. […] Further, Sephadex®-QAE was added to the obtained supernatant and the mixture was left at rest for 5 minutes, then, the radioactivity of the solution was measured. […]

Row | Structure (SMILES) | IC50 [1] | IC50 [2] [µM]
1 | COc1nc(N2CCN(C)CC2)ccc1-c1nc2c(C)nn(C3CCCCC3)c2c(=O)[nH]1 [Compound 16, 1-Cyclohexyl-5-[2-methoxy-6-(4-methyl-1-piperazinyl)-3-pyridinyl]-3-methyl-1,6-dihydro-7H-pyrazolo[4,3-d]pyrimidin-7-one] | ≤ 0.1 µM | 
2 | COc1nc(N2CCOCC2)ccc1-c1nc2c(C)nn(C3CCCCC3)c2c(=O)[nH]1 [Compound 17, 1-Cyclohexyl-5-[2-methoxy-6-(4-morpholinyl)-3-pyridinyl]-3-methyl-1,6-dihydro-7H-pyrazolo[4,3-d]pyrimidin-7-one] | ≤ 0.1 µM | 
3 | COc1nc(N2CCCN(C)CC2)ccc1-c1nc2c(C)nn(C3CCCCC3)c2c(=O)[nH]1 [Compound 18, 1-Cyclohexyl-5-[2-methoxy-6-(4-methyl-1,4-diazepan-1-yl)-3-pyridinyl]-3-meth-1-1,6-dihydro-7H-pyrazolo[4,3-d]pyrimidin-7-one] | ≤ 0.1 µM | 
4 | COc1nc(N2CCC(N(C)C)CC2)ccc1-c1nc2c(c(C3CCCCC3)nn2C)c(=O)[nH]1 [Compound 27, 3-Cyclohexyl-6-{6-[4-(dimethylamino)-1-piperidinyl]-2-methoxy-3-pyridinyl}-1-methyl-1.5-dihydro-4H-pyrazolo[3,4-d]-pyrimidin-4-one] | ≤ 0.1 µM | 
5 | COc1nc(N2CCC(NC(C)=O)CC2)ccc1-c1nc2c(c(C3CCCCC3)nn2C)c(=O)[nH]1 [Compound 29, N-{1-[5-(3-Cyclohexyl-1-methyl-4-oxo-4,5-dihydro-1H-pyrazolo[3,4-d]-pyrimidin-6-yl)-6-methoxy-2-piridinyl]-4-piperidinyl}acetamide] | ≤ 0.1 µM | 
6 | CNC1CCN(c2ccc(-c3nc4c(C)nn(C5CCCCC5)c4c(=O)[nH]3)c(OC)n2)CC1 [Compound 32] | ≤ 0.1 µM and 0.0032 µM | 0.98
7 | COc1nc(N2CCC(N(C)C)CC2)ccc1-c1nc2c(C)nn(C3CCCCC3)c2c(=O)[nH]1 [Compound 33] | ≤ 0.1 µM | 
8 | COc1nc(S(=O)(=O)N2CCCN(C)CC2)ccc1-c1nc2c(c(C3CCCCC3)nn2C)c(=O)[nH]1 [Compound 36, 3-Cyclohexyl-6-{2-methoxy-6-[(4-methyl-1,4-diazepan-1-yl)sulfonyl]-3-pyridinyl}-1-methyl-1,5-dihydro-4H-pyrazolo[3,4-d]pyrimidin-4-one] | ≤ 0.1 µM | 
9 | COc1nc(N2CCC(O)CC2)ccc1-c1nc2c(C)nn(C3CCCCC3)c2c(=O)[nH]1 [Compound 37, 1-Cyclohexyl-5-[6-(4-hydroxy-1-piperidinyl)-2-methoxy-3-pyridinyl]-3-methyl-1,6-dihydro-7H-pyrazolo[4,3-d]pyrimidin-7-one] | ≤ 0.1 µM | 
10 | CCOc1nc(N2CCN(C)CC2)ccc1-c1nc2c(C)nn(C3CCCCC3)c2c(=O)[nH]1 [Compound 43] | ≤ 0.1 µM | 
11 | CCOc1nc(N2CCCN(C)CC2)ccc1-c1nc2c(C)nn(C3CCCCC3)c2c(=O)[nH]1 [Compound 44, 1-Cyclohexyl-5-[2-ethoxy-6-(4-methyl-1,4-diazepan-1-yl)-3-pyridinyl]-3-methyl-1,6-dihydro-7H-pyrazolo[4,3-d]pyrimidin-7-one] | ≤ 0.1 µM | 
12 | CCOc1nc(N2CCC(N(C)C)CC2)ccc1-c1nc2c(C)nn(C3CCCCC3)c2c(=O)[nH]1 [Compound 47, 1-Cyclohexyl-5-{6-[4-(dimethylamino)-1-piperidinyl]-2-ethoxy-3-pyridinyl]-3-methyl-1,6-dihydro-7H-pyrazolo[4,3-d]-pyrimidin-7-one] | ≤ 0.1 µM | 
13 | CCOc1nc(N2CCC(NC)CC2)ccc1-c1nc2c(C)nn(C3CCCCC3)c2c(=O)[nH]1 [Compound 48, 1-Cyclohexyl-5-{2-ethoxy-6-[4-(methylamino)-1-piperidinyl]-3-pyridinyl}-3-methyl-1,6-dihydro-7H-pyrazolo[4,3-d]pyrimidin-7-one] | ≤ 0.1 µM | 
14 | CCOc1nc(N2CCC(O)CC2)ccc1-c1nc2c(C)nn(C3CCCCC3)c2c(=O)[nH]1 [Compound 49, 1-Cyclohexyl-5-[2-ethoxy-6-(4-hydroxy-1-piperidinyl)-3-pyridinyl]-3-methyl-1,6-dihydro-7H-pyrazolo[4,3-d]pyrimidin-7-one] | ≤ 0.1 µM | 

Results, then the molecule that gave them:

Row | IC50 [1] | IC50 [2] [µM] | Structure (SMILES)
15 | ≤ 0.1 µM |  | COc1nc(N2CCN(C)CC2)ccc1-c1nc2c(c(C3CCCCC3)nn2C)c(=O)[nH]1 [Compound 20, 3-Cyclohexyl-6-[2-methoxy-6-(4-methyl-1-piperazinyl)-3-pyridinyl]-1-methyl-1,5-dihydro-4H-pyrazolo[3,4-d]pyrimidin-4-one]
16 | ≤ 0.1 µM |  | COc1nc(N2CCOCC2)ccc1-c1nc2c(c(C3CCCCC3)nn2C)c(=O)[nH]1 [Compound 21, 3-Cyclohexyl-6-[2-methoxy-6-(4-morpholinyl)-3-pyridinyl]-1-methyl-1,5-dihydro-4H-pyrazolo[3,4-d]pyrimidin-4-one]
17 | ≤ 0.1 µM |  | COc1nc(N2CCCN(C)CC2)ccc1-c1nc2c(c(C3CCCCC3)nn2C)c(=O)[nH]1 [Compound 22, 3-Cyclohexyl-6-[2-methoxy-6-(4-methyl-1,4-diazepan-1-yl)-3-pyridinyl]-1-methyl-1.5-dihydro-4H-pyrazolo[3,4-d]pyrimidin-4-one]
18 | ≤ 0.1 µM |  | COc1nc(N2CCC(O)CC2)ccc1-c1nc2c(c(C3CCCCC3)nn2C)c(=O)[nH]1 [Compound 25, 3-Cyclohexyl-6-[6-(4-hydroxy-1-piperidinyl)-2-methoxy-3-pyridinyl]-1-methyl-1,5-dihydro-4H-pyrazolo[3,4-d]pyrimidin-4-one]
19 | ≤ 0.1 µM and 0.0026 µM | 1.2 | CNC1CCN(c2ccc(-c3nc4c(c(C5CCCCC5)nn4C)c(=O)[nH]3)c(OC)n2)CC1 [Compound 26, 3-Cyclohexyl-6-{2-methoxy-6-[4-(methylamino)-1-piperidinyl]-3-pyridinyl}-1-methyl-1,5-dihydro-4H-pyrazolo[3,4-d]-pyrimidin-4-one]
20 | ≤ 0.1 µM |  | COc1nc(N2CCC(N)CC2)ccc1-c1nc2c(c(C3CCCCC3)nn2C)c(=O)[nH]1 [Compound 28, 6-[6-(4-Amino-1-piperidinyl)-2-methoxy-3-pyridinyl]-3-cyclohexyl-1-methyl-1,5-dihydro-4H-pyrazolo[3,4-d]pyrimidin-4-one]
